According to patent US7476526B2, “Method of using a gene conferring resistance to 4,5-dihydroxy-2-cyclopenten-1-one (DHCP) and identifying inhibitors of a polypeptide encoded by the gene” (priority 2000, dated 2009):
In brackets after ≈: the same amount, converted by molar mass.

Experiments:
[1] = test system: E. coli wild-type strain JM83; assay: Effect of DHCP on the growth of E. coli in LB medium (Klett units); format: cell-based, Escherichia coli; conditions: for effect on growth: LB medium
Procedure: (§1) A. The JM83 cells were grown in LB medium up to Klett unit of 50 and DHCP was added at various concentrations (0-400 µM). After the growth reached to Klett unit of 90-100, cells were diluted with medium containing respective concentrations of DHCP and growth was further monitored. DHCP concentration: 0 . mu.M, open squares; 50 . mu.M, closed diamonds; 100 µM, open circles; 250 . mu.M, open diamonds; 400 . mu.M closed squares. [0023] B. Overnight grown cells of E. coli JM83 were diluted appropriately and plated on LB plates containing different concentrations of DHCP (0-350 . mu.M). The number of colonies on the plate without DHCP was taken as 100% and the other numbers were expressed as relative percentages.
The E. coli wild-type strain JM83 [F^-araΔ (lac-proAB) rpsL(st^r)](Yanisch-Perron et al., 1985) was grown in Luria broth (LB). Media were supplemented with ampicillin (final concentration of 50 . mu.g/ml) whenever required. To check the effect of DHCP on the growth of E. coli, cells grown overnight in LB medium were diluted into fresh LB medium. After the growth reached to the Klett unit of 50, DHCP was added at various concentrations (0-400 . mu.M) and growth was further monitored. After it reached to the Klett unit of 90-100, it was diluted I O-fold into media containing respective concentrations of DHCP. […] In the presence of 400 . mu.M DHCP, cell growth stopped after 4 h of incubation.

[2] = test system: E. coli JM83; assay: Colony formation ability of E. coli on LB plates containing DHCP; format: cell-based, Escherichia coli
Procedure: as §1
To check the colony formation ability of E. coli at various concentrations of DHCP, cells grown overnight in LB medium were diluted appropriately and plated on LB plates containing DHCP (0-350 . mu.M). After incubation at 37. degree. C., the number of colonies on each plate were counted. The number of colonies on the control plate without DHCP was taken as 100% and the other numbers were expressed as relative percentages (FIG. 2B). In the presence of 300 µM DHCP, 100-fold decrease in the colony numbers was observed.

[3] = test system: E. coli JM83 cells harboring pUC19; assay: Minimum inhibitory concentrations on LB plates, cells harboring pUC19; format: cell-based; conditions: Escherichia coli, cells with pUC19, 37 °C, 20 h, same for 3.5 × 10^5 and 3.5 × 10^3 cells
Procedure: (§2) The E. coli wild-type cells harboring pUC19 or pSP007 plasmid were grown overnight in LB medium containing ampicillin. The cells were diluted 10- and 1000-times, and 5 µl of each dilution (corresponding to 3.5×10^5 cells and 3.5×10^3 cells, respectively) was spotted on LB plates containing serial dilutions of kanamycin, chloramphenicol, spectinomycin, tetracycline and DHCP. Plates were incubated at 37° C. for 20 h. […] The MIC values for cells harboring pUC19 and pSP007 were same for spectinomycin, chloramphenicol and tetracycline. The MIC value was two times higher for kanamycin for the cells harboring pSP007 than the cells with pUC19. The MIC value for DHCP on the other hand was 8 times higher for the cells-harboring pSP007 than that for the cells with pUC19.
(§3) MICs for both dilutions of the cells (3.5×10^5 and 3.5×10^3) were the same.

[4] = test system: E. coli JM83 cells harboring pSP007; assay: Minimum inhibitory concentrations on LB plates, cells harboring pSP007 (dep, ORF389); format: cell-based, Escherichia coli; conditions: for MIC: Escherichia coli, cells with pSP007, LB plates, 37 °C, 20 h, same for 3.5 × 10^5 and 3.5 × 10^3 cells; for MIC value for cells harboring pSP007 relative to cells with pUC19: pSP007 versus pUC19
Procedure: as §2, §3

## O=C1C=CC(O)C1O (stereo not drawn) [DHCP, 4,5-dihydroxy-2-cyclopenten-1-one]
[1]; 50 μM DHCP
  effect on growth: growth was slowed after 3 h of incubation
[1]; 50 μM DHCP, similar to that without DHCP
  time to reach the maximum density: 8 h
[1]; 100 μM DHCP
  effect on growth: grew more slowly after 3 h incubation
[1]; 100 μM DHCP, versus without DHCP
  maximum cell density: lower than that without DHCP
[1]; 250 μM DHCP
  time after which cells stopped growing: 5 h
  effect on growth: growth was severely impaired after 3 h of incubation
[1]; 250 μM DHCP for 8 h, microscopic examination
  length of elongated cells (filaments) relative to control cells: approximately 15 fold
[1]; 400 μM DHCP
  time after which cell growth stopped: 4 h
[2]; 300 μM DHCP, LB plates, 37 °C
  decrease in the colony numbers: 100 fold
[2]; 350 μM DHCP, 1×10^4 cells plated on LB medium
  colony formation: no colonies were obtained
[2]; E. coli
  concentration at which DHCP inhibits cell growth: ≥ 350 µM
[3]
  MIC: 25 µg/mL (≈ 219 µM)
[4]
  MIC: 200 µg/mL (≈ 1750 µM)
  MIC value for cells harboring pSP007 relative to cells with pUC19: 8 times

## O=C(N[C@H](CO)[C@H](O)c1ccc([N+](=O)[O-])cc1)C(Cl)Cl [chloramphenicol]
[3]
  MIC: 6.25 µg/mL (≈ 19.3 µM)
[4]
  MIC: 6.25 µg/mL (≈ 19.3 µM)
  MIC value for cells harboring pSP007 relative to cells with pUC19: same

## NC[C@H]1O[C@H](O[C@H]2[C@H](O)[C@@H](O[C@H]3O[C@H](CO)[C@@H](O)[C@H](N)[C@H]3O)[C@H](N)C[C@@H]2N)[C@H](O)[C@@H](O)[C@@H]1O [kanamycin]
[3]
  MIC: 25 µg/mL (≈ 51.6 µM)
[4]
  MIC: 50 µg/mL (≈ 103 µM)

## CN(C)[C@@H]1C(O)=C(C(N)=O)C(=O)[C@@]2(O)C(O)=C3C(=O)c4c(O)cccc4[C@@](C)(O)[C@H]3C[C@@H]12 [tetracycline]
[3]
  MIC: 3.12 µg/mL (≈ 7.03 µM)
[4]
  MIC: 3.12 µg/mL (≈ 7.03 µM)

## CN[C@@H]1[C@H](O)[C@H](NC)[C@H]2O[C@@]3(O)C(=O)C[C@@H](C)O[C@H]3O[C@@H]2[C@H]1O [spectinomycin]
[3]
  MIC: 12.5 µg/mL (≈ 37.6 µM)
[4]
  MIC: 12.5 µg/mL (≈ 37.6 µM)
  MIC value for cells harboring pSP007 relative to cells with pUC19: same
